Measured values taken from publication PMC9897758, “Computational prediction and in vitro analysis of the potential ligand binding site within the extracellular ATP receptor, P2K2” (Plant Signaling & Behavior, 2023).
Substitutions are numbered along the chain they refer to.

What was measured:
Assay in all cases: radioligand binding, gel filtration separation of bound and free ATP, saturation fit
[1] = biological target: T1, P2K2 extracellular lectin domain (LecRK-I.5), GST-tagged (Arabidopsis thaliana, UniProt Q9M1G4, S246A)
T1 construct: gene LECRK15; extracellular lectin domain (ectodomain), GST fusion, purified from E. coli BL21-AI
T1 sequence (Q9M1G4 23-286 S246A limits assumed): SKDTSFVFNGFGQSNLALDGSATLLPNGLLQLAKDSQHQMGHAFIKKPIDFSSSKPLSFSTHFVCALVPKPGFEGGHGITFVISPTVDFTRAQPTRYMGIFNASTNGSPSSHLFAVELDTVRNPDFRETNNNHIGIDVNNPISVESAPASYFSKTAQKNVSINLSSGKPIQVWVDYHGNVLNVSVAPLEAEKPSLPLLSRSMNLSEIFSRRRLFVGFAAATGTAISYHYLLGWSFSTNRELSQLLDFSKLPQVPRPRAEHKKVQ

[2] = biological target: T2, P2K2 extracellular lectin domain (LecRK-I.5), GST-tagged (Arabidopsis thaliana, UniProt Q9M1G4, T245A)
T2 construct: gene LECRK15; extracellular lectin domain (ectodomain), GST fusion, purified from E. coli BL21-AI
T2 sequence (Q9M1G4 23-286 T245A limits assumed): T1 sequence (Q9M1G4 23-286 S246A limits assumed) with T223A, A224S

[3] = biological target: T3, P2K2 extracellular lectin domain (LecRK-I.5), GST-tagged (Arabidopsis thaliana, UniProt Q9M1G4, H99A)
T3 construct: gene LECRK15; extracellular lectin domain (ectodomain), GST fusion, purified from E. coli BL21-AI
T3 sequence (Q9M1G4 23-286 H99A limits assumed): T1 sequence (Q9M1G4 23-286 S246A limits assumed) with H77A, A224S

[4] = biological target: T4, P2K2 extracellular lectin domain (LecRK-I.5), GST-tagged (Arabidopsis thaliana, UniProt Q9M1G4)
T4 construct: gene LECRK15; extracellular lectin domain (ectodomain), GST fusion, purified from E. coli BL21-AI
T4 sequence (Q9M1G4 23-286 limits assumed): T1 sequence (Q9M1G4 23-286 S246A limits assumed) with A224S

[5] = biological target: T5, P2K2 extracellular lectin domain (LecRK-I.5), GST-tagged (Arabidopsis thaliana, UniProt Q9M1G4, R144A)
T5 construct: gene LECRK15; extracellular lectin domain (ectodomain), GST fusion, purified from E. coli BL21-AI
T5 sequence (Q9M1G4 23-286 R144A limits assumed): T1 sequence (Q9M1G4 23-286 S246A limits assumed) with R122A, A224S

Nc1ncnc2c1ncn2[C@@H]1O[C@H](COP(=O)(O)OP(=O)(O)OP(=O)(O)O)[C@@H](O)[C@H]1O [ATP]
Kd [1]: 0.109 ± 0.0297 µM | Kd [2]: 0.0417 ± 0.0141 µM | Kd [3]: > 1 µM | Kd [4]: 0.0416 ± 0.0138 µM | Kd [5]: 0.104 ± 0.025 µM
